{"source": "patent US11155576B2", "about": "“Synthetic peptides, enzymatic formation of pericellular hydrogels/nanofibrils, and methods of use” (BRANDEIS UNIVERSITY, priority 2014, dated 2021)", "key": {"phosphatases": {"system": "phosphatases", "assay": "Phosphatase activity assay of gel, suspension and control medium of HeLa cells", "assay_type": "cell-based, human", "settings": "HeLa cells treated with 560 μM D-2a, after removing the hydrogel", "experimental": "Phosphatase activity was evaluated by the alkaline phosphatase assay using the Abcam Alkaline Phosphatase Assay Kit following the supplied protocol. In brief, 50 μL of 5 mM pNPP solution in assay buffer was mixed with 80 μL of the sample solutions in 96 well plate. The mixed solution was incubated at 25° C., protected from light. 20 μL of stop solution was added to each test and the OD at 405 nm of the solution was measured in a microplate reader.\nTo verify whether the pericellular hydrogel/nanonets block the entry of secretory proteins/enzymes into the culture medium, the amount of phosphatases in four experimental samples was evaluated: blank medium (Blank), medium incubated with untreated HeLa cells (Control), the pericellular hydrogel from HeLa cells treated with 560 μM D-2a for 12 hours (Gel), and the suspension of the medium of HeLa cells treated with D-2a after removing the hydrogel (Suspension). The amount of phosphatases accumulated in the Gel is about 27 times higher than that found in the Control (FIG. 3B). […] In other words, the pericellular hydrogel/nanonets largely block cellular mass exchange between the cells and their environment."}, "Ect1/E6E7 cells": {"system": "Ect1/E6E7 cells", "assay": "Pericellular hydrogelation on Ect1/E6E7 cells", "assay_type": "cell-based, human", "settings": "560 μM, prolonged incubation time of 48 hours", "experimental": "An 11.2 mM (8.09 mg/mL) stock solution of D-2a was prepared in ddH2O. The pH was adjusted to 7.4 using 1N NaOH. 2×10^5 cells in exponential growth phase were seeded in 35 mm Petri dish with 1 mL complete culture medium. Following overnight incubation, the medium was replaced with 1 mL of medium containing D-2a (diluted from the stock solution immediately prior to use). Petri dishes were incubated at 37° C. for two hours. Next, dishes were removed from the incubator and titled on a bench to visualize the pericellular hydrogel. Prior to co-incubation with phosphatase inhibitors, cells were washed three times with medium containing Pierce phosphatase inhibitor cocktail (Thermo) (contains sodium floride, sodium orthovanadate, sodium pyrophosphate, and beta-glycerophosphate). Next, 1 mL of medium containing both the inhibitor cocktail and D-2a was applied to the cells.\nEct1/E6E7 cells (immortalized normal human cervical epithelial cells, which have same tissue and organ origins as HeLa cells) were treated with the same procedure as described for HeLa cells above. […] The difference of hydrogel/nanonets formation by D-2a conversion to D-2b on HeLa cells and Ect1/E6E7 cells agrees with the notion that HeLa cells have higher levels of phosphatase activity than Ect1/E6E7 cells (FIG. 9)."}, "[1]": {"system": "secretory phosphatases present in HeLa cell conditioned medium", "assay": "Hydrogelation in HeLa cell conditioned medium", "assay_type": "biochemical, human", "settings": "48 hours", "experimental": "2×10^5 of cells in exponential growth phase were seeded in a 35 mm Petri dish with 1 mL complete culture medium. Following overnight incubation, 1 mL of new medium was replaced and incubated for 24 h at 5% CO2, 37° C. The medium was next removed and centrifuged at 10,000 rpm for 5 minutes. The suspension was placed into a 1.5 mL Eppendorf® tube and stored at −20° C. Stored conditioned medium was thawed and warmed to 37° C. in water bath immediately before use.\nHeLa cell conditioned medium (“CM”) dephosphorylates D-2a to form D-2b nanofibrils."}, "HeLa cells [2]": {"system": "HeLa cells", "assay": "Confocal microscopy, Congo red/DAPI staining, HeLa", "assay_type": "cell-based, human", "settings": "280 μM, 12 hours", "experimental": "Cells in exponential growth phase were seeded in a glass bottomed culture chamber at 2×10^4 cells/well. Cells were allowed to attach for 24 hours at 37° C., 5% CO2. The culture medium was removed, and replaced with culture medium containing D-2a at 280 μM. Following 12 hours of incubation, cells were washed 3 times with PBS prior to being stained with 0.1 mg/mL Congo red and 0.6 μM DAPI in PBS buffer (30 minutes at 37° C. in the dark). Next, cells were rinsed three times with PBS, and then kept in PBS for imaging.\nPericellular nanofibrils and cellular nuclei can be visualized using Congo red and DAPI, respectively (Kapuscinski, Biotech. Histochem. 70:220-233 (1995); Binder et al., Angew. Chem. Int. Ed. 45:7324-7328 (2006), each of which is hereby incorporated by reference in its entirety)."}, "HeLa cells [3]": {"system": "HeLa cells", "assay": "LC-MS composition of pericellular hydrogel/nanofibrils and suspension medium of HeLa cells", "assay_type": "in vitro ADME, human"}, "[4]": {"settings": "HeLa cells incubated with precursor at 560 μM at 37° C. for 12 hours"}}}
{"smiles": "O=C(Cc1ccc2ccccc2c1)N[C@H](Cc1ccccc1)C(=O)N[C@H](Cc1ccccc1)C(=O)N[C@H](Cc1ccc(OP(=O)(O)O)cc1)C(=O)O", "note": "[D-2a, Nap-D-Phe-D-Phe-D-Tyr(PO3H2)]", "values": [{"measurement": "Amount of phosphatases in the Suspension relative to the Control", "setting": "phosphatases", "result": "significantly lower than that in the Control"}, {"measurement": "Hydrogel formation on Ect1/E6E7 cells", "setting": "Ect1/E6E7 cells", "result": "hydrogels hardly form"}, {"measurement": "Hydrogel formation in HeLa cell conditioned medium", "setting": "[1]; 140 μM", "result": "fails to form a hydrogel"}, {"measurement": "Hydrogel formation in HeLa cell conditioned medium", "setting": "[1]; 280 μM", "result": "completely transforms from a solution to a hydrogel"}, {"measurement": "Hydrogel formation in HeLa cell conditioned medium", "setting": "[1]; 560 μM", "result": "completely transforms from a solution to a hydrogel"}, {"measurement": "Congo red fluorescence on cells", "setting": "HeLa cells [2]", "result": "fluorescence (red) that outlines the cell shape"}, {"measurement": "DAPI entry into cells", "setting": "HeLa cells [2]", "result": "DAPI is unable to enter"}, {"measurement": "D-2b in pericellular hydrogel", "setting": "HeLa cells [3]; [4]", "result": 2053.9, "unit": "µM"}, {"measurement": "D-2b in suspension medium", "setting": "HeLa cells [3]; [4]", "result": 502.5, "unit": "µM"}, {"measurement": "Concentration of D-2b in the hydrogel (LC-MS)", "setting": "HeLa cells [3]; hydrogel of FIG. 2A, HeLa monolayers treated with 500 μM D-2a as printed", "result": "approximately 2.05 mM"}]}
